Results published in patent US7902182B2, “HIV integrase inhibitors” (priority 2005, dated 2011).

Molecular target: T1, HIV-integrase (Human immunodeficiency virus type 1 group M subtype B, UniProt P12497)
T1 construct: Recombinant integrase (0.26 ng) was incubated with the beads
Test: HIV-Integrase Inhibition Activity (SPA bead strand transfer assay)
Format: biochemical
Conditions: recombinant integrase, biotin labeled substrate DNA on SPA beads, P33 labeled target DNA; read-out: Activity (IC50 against HIV-integrase)
Protocol: HIV-Integrase InhibitionActivity. To evaluate in-vitro activity against HIV-integrase, 5 pmole of biotin labeled substrate DNA was bound to 100 μg of Streptavidin coated PVT SPA beads (Amersham Pharmacia Biotech). Recombinant integrase (0.26 ng) was incubated with the beads for 90 min at 37° C. Unbound enzyme was removed by washing the complex followed by addition of inhibitors and 0.1 fmol of P33 labeled target DNA. The reaction was stopped by adding EDTA to a final concentration of 10 mM. Samples were counted in TopCountNXT (Packard) and the CPM was used as a measure of integration. The reaction condition was as described in A. Engelman and R. Craigie, J. Virol. 69, 5908-5911 (1995). The sequences of substrate and target DNA were described in Nucleic Acid Research 22, 1121-1122 (1994).
Activity equal to A refers to a compound having IC50=0.002 to 0.10 μM while B and C denote compounds having IC50=0.1 to 1.0 μM and IC50≧1.0 μM respectively.

Row | Structure (SMILES) | IC50 [nM]
1 | O=C(NCc1ccc(F)cc1S(=O)(=O)N1CCNCC1)c1nc2n(c(=O)c1O)CCOC21CCOCC1 [Example 1] | 2 to 100
2 | CN1CCN(S(=O)(=O)c2cc(F)ccc2CNC(=O)c2nc3n(c(=O)c2O)CCOC32CCOCC2)CC1 [Example 2] | 2 to 100
3 | COC(=O)N1CCN(S(=O)(=O)c2cc(F)ccc2CNC(=O)c2nc3n(c(=O)c2O)CCOC32CCOCC2)CC1 [Example 3] | 2 to 100
4 | CCN1CCN(S(=O)(=O)c2cc(F)ccc2CNC(=O)c2nc3n(c(=O)c2O)CCOC32CCOCC2)CC1 [Example 5] | 2 to 100
5 | CN(C)C(=O)N1CCN(S(=O)(=O)c2cc(F)ccc2CNC(=O)c2nc3n(c(=O)c2O)CCOC32CCOCC2)CC1 [Example 7] | 2 to 100
6 | CN(C)S(=O)(=O)N1CCN(S(=O)(=O)c2cc(F)ccc2CNC(=O)c2nc3n(c(=O)c2O)CCOC32CCOCC2)CC1 [Example 8] | 2 to 100
7 | O=C(NCc1ccc(F)cc1S(=O)(=O)N1CCN(C(=O)N2CCOCC2)CC1)c1nc2n(c(=O)c1O)CCOC21CCOCC1 [Example 9] | 2 to 100
8 | CC(=O)N1CCN(S(=O)(=O)c2cc(F)ccc2CNC(=O)c2nc3n(c(=O)c2O)CCOC32CCOCC2)CC1 [Example 10] | 2 to 100
9 | O=C(NCc1ccc(F)cc1S(=O)(=O)N1CCOCC1)c1nc2n(c(=O)c1O)CCOC21CCOCC1 [Example 11] | 2 to 100
10 | O=C(NCc1ccc(F)cc1S(=O)(=O)N1CCOCC1)c1nc2n(c(=O)c1O)CCOC21CCCC1 [Example 12] | 2 to 100
11 | O=C(NCc1ccc(F)cc1S(=O)(=O)N1CCOCC1)c1nc2n(c(=O)c1O)CCCC21CCCC1 [Example 13] | 2 to 100
12 | CC1(C)OCCn2c1nc(C(=O)NCc1ccc(F)cc1S(=O)(=O)N1CCNCC1)c(O)c2=O [Example 14] | 2 to 100
13 | CN1CCN(S(=O)(=O)c2cc(F)ccc2CNC(=O)c2nc3n(c(=O)c2O)CCOC3(C)C)CC1 [Example 15] | 2 to 100
14 | CC1(C)OCCn2c1nc(C(=O)NCc1ccc(F)cc1S(=O)(=O)N1CCN(S(C)(=O)=O)CC1)c(O)c2=O [Example 16] | 2 to 100
15 | CC1(C)OCCn2c1nc(C(=O)NCc1ccc(F)cc1S(=O)(=O)N1CCN(C(=O)N3CCOCC3)CC1)c(O)c2=O [Example 17] | 2 to 100
16 | COC(=O)N1CCN(S(=O)(=O)c2cc(F)ccc2CNC(=O)c2nc3n(c(=O)c2O)CCOC3(C)C)CC1 [Example 18] | 2 to 100
17 | CN(C)C(=O)N1CCN(S(=O)(=O)c2cc(F)ccc2CNC(=O)c2nc3n(c(=O)c2O)CCOC3(C)C)CC1 [Example 19] | 2 to 100
18 | CC(=O)N1CCN(S(=O)(=O)c2cc(F)ccc2CNC(=O)c2nc3n(c(=O)c2O)CCOC3(C)C)CC1 [Example 20] | 2 to 100
19 | CN(C)S(=O)(=O)N1CCN(S(=O)(=O)c2cc(F)ccc2CNC(=O)c2nc3n(c(=O)c2O)CCOC3(C)C)CC1 [Example 21] | 2 to 100
20 | O=C(NCc1ccc(F)cc1S(=O)(=O)N1CCNCC1)c1nc2n(c(=O)c1O)CCOC21CCCC1 [Example 22] | 2 to 100

Row | Structure (SMILES) | IC50 [nM]
21 | CN1CCN(S(=O)(=O)c2cc(F)ccc2CNC(=O)c2nc3n(c(=O)c2O)CCOC32CCCC2)CC1 [Example 23] | 2 to 100
22 | CN1CCN(S(=O)(=O)c2cc(F)ccc2CNC(=O)c2nc3n(c(=O)c2O)CCOC32CCC2)CC1 [Example 24] | 2 to 100
23 | CC1(C)OCCn2c1nc(C(=O)NCc1ccc(F)cc1S(=O)(=O)N1CCC(O)CC1)c(O)c2=O [Example 25] | 2 to 100
24 | CC1(C)OCCn2c1nc(C(=O)NCc1ccc(F)cc1S(=O)(=O)N1CCC1)c(O)c2=O [Example 26] | 2 to 100
25 | CC1(C)OCCn2c1nc(C(=O)NCc1ccc(F)cc1S(=O)(=O)N1CCOCC1)c(O)c2=O [Example 27] | 2 to 100
26 | CC1(C)OCCn2c1nc(C(=O)NCc1ccc(F)cc1S(=O)(=O)N1CCCCCC1)c(O)c2=O [Example 28] | 2 to 100
27 | CC1(C)OCCn2c1nc(C(=O)NCc1ccc(F)cc1S(=O)(=O)N1CCC(O)C1)c(O)c2=O (stereo not shown) [Example 29] | 2 to 100
28 | CC1(C)OCCn2c1nc(C(=O)NCc1ccc(F)cc1S(=O)(=O)N1CCCCC1)c(O)c2=O [Example 30] | 2 to 100
29 | CC1(C)OCCn2c1nc(C(=O)NCc1ccc(F)cc1S(=O)(=O)N1CCC3(CC1)OCCO3)c(O)c2=O [Example 31] | 2 to 100
30 | CC1(C)OCCn2c1nc(C(=O)NCc1ccc(F)cc1S(=O)(=O)N1CCC3(CCNC3=O)CC1)c(O)c2=O [Example 32] | 2 to 100
31 | CC1(C)OCCn2c1nc(C(=O)NCc1ccc(F)cc1S(=O)(=O)N1CCCC1)c(O)c2=O [Example 33] | 2 to 100
32 | CC(=O)N(C)C1CCN(S(=O)(=O)c2cc(F)ccc2CNC(=O)c2nc3n(c(=O)c2O)CCOC3(C)C)C1 (stereo not shown) [Example 34] | 2 to 100
33 | CC1CN(S(=O)(=O)c2cc(F)ccc2CNC(=O)c2nc3n(c(=O)c2O)CCOC3(C)C)CC(C)N1 (stereo not shown) [Example 35] | 2 to 100
34 | CC1CN(S(=O)(=O)c2cc(F)ccc2CNC(=O)c2nc3n(c(=O)c2O)CCOC3(C)C)CC(C)N1C (stereo not shown) [Example 36] | 2 to 100
35 | C[C@@H]1CN(S(=O)(=O)c2cc(F)ccc2CNC(=O)c2nc3n(c(=O)c2O)CCOC3(C)C)CCN1C(=O)OC(C)(C)C [Example 37] | 2 to 100
36 | CS[C@@H]1COC[C@H]1N1CCN(S(=O)(=O)c2cc(F)ccc2CNC(=O)c2nc3n(c(=O)c2O)CCOC3(C)C)CC1 [Example 38] | 2 to 100
37 | CC1(C)OCCn2c1nc(C(=O)NCc1ccc(F)cc1S(=O)(=O)N1CCOC(CN3CCCC3)C1)c(O)c2=O (stereo not shown) [Example 39] | 2 to 100
38 | CN(C)[C@@H]1COC[C@H]1N1CCN(S(=O)(=O)c2cc(F)ccc2CNC(=O)c2nc3n(c(=O)c2O)CCOC3(C)C)CC1 [Example 40] | 2 to 100
39 | C[C@@H]1CN(S(=O)(=O)c2cc(F)ccc2CNC(=O)c2nc3n(c(=O)c2O)CCOC3(C)C)CCN1 [Example 41] | 2 to 100
40 | C[C@@H]1CN(S(=O)(=O)c2cc(F)ccc2CNC(=O)c2nc3n(c(=O)c2O)CCOC3(C)C)CCN1C [Example 42] | 2 to 100
